Literature values, collected in PMC9042378 (RSC Advances, 2021).

System: Tyr

Molecule | Tyr inhibition type
O=C1c2c(O)cc(O)cc2O[C@H](c2cc(O)c(O)c(O)c2)[C@H]1O [dihydromyricetin] | Mixed inhibition
O=C(O[C@@H]1Cc2c(O)cc(O)cc2O[C@@H]1c1ccc(O)c(O)c1)c1cc(O)c(O)c(O)c1 [epicatechin gallate] | Mixed inhibition
O=c1cc(CO)occ1O [kojic acid] | Mixed inhibition
CCC(C)C(=O)c1c(O)c(Cc2c(O)c(C)c(O)c(C(=O)C(C)C)c2O)c(O)c2c1OC(C)(C)C=C2 (centres unmarked) [mallotophilippen A] | Mixed inhibition
mallotophilippen B | Mixed inhibition
